For experiment [1], the target named is GDP-bound NRAS wild-type protein (Homo sapiens, UniProt P01111). Description: Binding to NRAS by surface plasmon resonance (SPR), Single Cycle Kinetics. Conditions: SPR, GDP-bound NRAS wild-type protein vs GDP-bound KRAS wild-type protein.
The target in experiment [2] is GDP-bound HRAS wild-type protein (Homo sapiens, UniProt P01112). Description: Binding to HRAS by surface plasmon resonance (SPR), Single Cycle Kinetics. Conditions: SPR, GDP-bound HRAS wild-type protein vs GDP-bound KRAS wild-type protein.
GDP-bound HRAS wild-type protein, sequence (P01112 whole entry): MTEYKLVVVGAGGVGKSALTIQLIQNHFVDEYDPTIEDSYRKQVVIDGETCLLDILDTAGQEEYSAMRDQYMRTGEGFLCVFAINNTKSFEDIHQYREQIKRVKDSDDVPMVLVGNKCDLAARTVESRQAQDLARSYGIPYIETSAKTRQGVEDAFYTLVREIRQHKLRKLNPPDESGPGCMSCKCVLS
Experiment [3] concerns human lung cancer strain NCI-H441.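 Also: cell proliferation inhibition after four days measured by CellTiter-Glo.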
Setting [4] is: read-out: NCI-H441 cell proliferation inhibitory activity, 50% proliferation inhibitory concentration (IC50 value), NCI-H441, four days, CellTiter-Glo.
Setting [5] is: read-out: NCI-H441 IC50, NCI-H441 cells, four days, CellTiter-Glo.
The mark [6] stands for this setting: read-out: NCI-H441 IC50, NCI-H441 cell proliferation, 4 days, CellTiter-Glo.

Where two headings read alike, the source gives them in different places. Where a SMILES comes first, the peptide text is derived from it. Bridges are numbered along the chain shown (N, C = ends). [ ]: non-standard residue; d: D form. The star is where a group is joined. ξ: configuration not given here. hPhe(3,5-F2-4-CF3) = N[C@@H](CCc1cc(F)c(C(F)(F)F)c(F)c1)C(=O)O; hPhe(3-Cl-4-CF3) = N[C@@H](CCc1ccc(C(F)(F)F)c(Cl)c1)C(=O)O; NPrPhe(4-CF3) = CCCN[C@@H](Cc1ccc(C(F)(F)F)cc1)C(=O)O; NMeGly(cPent) = CN[C@H](C(=O)O)C1CCCC1; NMeD = CN[C@@H](CC(=O)O)C(=O)O; NMeL = CN[C@@H](CC(C)C)C(=O)O; ξNMeD = CNC(CC(=O)O)C(=O)O; αMeS = C[C@](N)(CO)C(=O)O; Morpholide = C1CN(*)CCO1; Piperidide = C1CCN(*)CC1; Ac5c = NC1(C(=O)O)CCCC1; Aze = O=C(O)[C@@H]1CCN1; Ac4c = NC1(C(=O)O)CCC1; ξP = O=C(O)C1CCCN1; Sar = CNCC(=O)O; Allyl = C=CC*

GDP-bound NRAS wild-type protein, sequence (P01111 whole entry): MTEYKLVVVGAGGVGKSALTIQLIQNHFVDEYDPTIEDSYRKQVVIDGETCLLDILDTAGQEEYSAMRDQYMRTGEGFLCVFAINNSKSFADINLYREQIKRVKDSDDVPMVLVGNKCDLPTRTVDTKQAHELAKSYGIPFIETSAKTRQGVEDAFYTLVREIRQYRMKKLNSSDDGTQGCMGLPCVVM

In the case of `CCCN1C(=O)CN(C)C(=O)[C@@H]2CCN2C(=O)[C@H]([C@@H](C)CC)NC(=O)[C@H](CC(C)C)N(C)C(=O)C[C@@H](C(=O)N2CCOCC2)NC(=O)[C@H](C2CCCC2)N(C)C(=O)C2(CCC2)NC(=O)[C@@H]2CCCN2C(=O)[C@H](CCc2ccc(C(F)(F)F)c(Cl)c2)NC(=O)CN(C)C(=O)[C@@H]1Cc1ccc(C(F)(F)F)cc1` [PP0338] ([NMeL]I[Aze][Sar][NPrPhe(4-CF3)][Sar][hPhe(3-Cl-4-CF3)]P[Ac4c][NMeGly(cPent)]D-Morpholide; lactam N-11), the “NRAS/KRAS (ratio of KD value for NRAS to KD value for KRAS)” value in experiment [1] was “B (a compound having 3 or more and less than 10 is denoted as B)”. The “HRAS/KRAS (ratio of KD value for HRAS to KD value for KRAS)” value in experiment [2] is “B (a compound having 3 or more and less than 10 is denoted as B)”. The compound also gave an IC50 in experiment [3] of 0.296 µM.
In the case of `C=CCOC[C@]1(C)NC(=O)[C@@H]2CCCN2C(=O)[C@H](CCc2cc(F)c(C(F)(F)F)c(F)c2)NC(=O)CN(C)C(=O)[C@H](Cc2ccc(C(F)(F)F)cc2)N(CCC)C(=O)CN(C)C(=O)CN(C)C(=O)[C@H]([C@@H](C)CC)NC(=O)[C@H](CC(C)C)N(C)C(=O)C[C@@H](C(=O)N2CCOCC2)N(C)C(=O)[C@H](C2CCCC2)N(C)C1=O` [PP0763] ([NMeL]I[Sar][Sar][NPrPhe(4-CF3)][Sar][hPhe(3,5-F2-4-CF3)]P[αMeS](Allyl)[NMeGly(cPent)][NMeD]-Morpholide; lactam N-11), the “NRAS/KRAS (ratio of KD value with respect to NRAS to KD value with respect to KRAS)” value in experiment [1] is “B (a compound having 3 or more and less than 10 is denoted as B)”. In addition, in experiment [2], the “HRAS/KRAS (ratio of KD value with respect to HRAS to KD value with respect to KRAS)” value was “B (a compound having 3 or more and less than 10 is denoted as B)”. This compound also registered an IC50 in experiment [3] of 0.083 µM.
Consider `CCC[C@H]1C(=O)N[C@@H](C2CCCCC2)C(=O)N(C)CC(=O)N(C)[C@H]2C/C=C\CCN(C2=O)[C@@H](Cc2ccc(C)cc2)C(=O)N(C)CC(=O)N[C@@H](CCc2ccc(C(F)(F)F)c(Cl)c2)C(=O)N2C[C@H](OCC)C[C@H]2C(=O)NC2(CC(C)(C)C2)C(=O)N(C)[C@@H](CC(C)(C)C)C(=O)N(C)[C@H](C(=O)N(C)C)CC(=O)N1C` [PP3018], for which the “NRAS/KRAS (ratio of KD value for NRAS to KD value for KRAS)” value in experiment [1] was “A (a compound having 10 or more and less than 20 is denoted as A)”. In experiment [2], the “HRAS/KRAS (ratio of KD value for HRAS to KD value for KRAS)” value was “B (a compound having 3 or more and less than 10 is denoted as B)”. Besides, in experiment [3], the IC50 was 0.0191 µM.
Turning to `CCO[C@@H]1C[C@H]2C(=O)NC3(CC(C)(C)C3)C(=O)N(C)[C@@H](C3CCCC3)C(=O)N(C)[C@H](C(=O)N(C)C)CC(=O)N(C)[C@@H](CC(C)C)C(=O)N[C@@H]([C@@H](C)CC)C(=O)N(C)CC(=O)N(C)[C@H]3C/C=C\CCN(C3=O)[C@@H](Cc3ccc(CC)cc3)C(=O)N(C)CC(=O)N[C@@H](CCc3ccc(C(F)(F)F)c(OC)c3)C(=O)N2C1` [PP2687, (2S,8S,12R,14S,20S,23S,27S,30S,36S,38Z)-20-cyclopentyl-12-ethoxy-2-[(4-ethylphenyl)methyl]-27-isobutyl-8-[2-[3-methoxy-4-(trifluoromethyl)phenyl]ethyl]-N,N,3′,3′,4,19,22,26,32,35-decamethyl-30-[(1S)-1-methylpropyl]-3,6,9,15,18,21,25,28,31,34,42-undecaoxo-spiro[1,4,7,10,16,19,22,26,29,32,35-undecazatricyclo[34.5.1.0^10,14]dotetracont-38-ene-17,1′-cyclobutane]-23-carboxamide], the IC50 in experiment [3] turned out to be 0.0029 µM.
`CCCOC[C@H]1C(=O)N[C@@H]([C@@H](C)OCC)C(=O)N(C)CC(=O)N(C)[C@H]2C/C=C\CCN(C2=O)[C@@H](Cc2ccc(C)cc2)C(=O)N(C)CC(=O)N[C@@H](CCc2ccc(C(F)(F)F)c(OC)c2)C(=O)N2C[C@@H](C)C[C@H]2C(=O)NC2(CC(C)(C)C2)C(=O)N(C)[C@@H](C2CCCC2)C(=O)N(C)[C@H](C(=O)N(C)CC)CC(=O)N1C` [PP2423] gave an IC50 in experiment [3] of 0.0719 µM.
Same read-out and setting: for `CCCN1C(=O)CN(C)C(=O)CN(C)C(=O)[C@H]([C@@H](C)CC)NC(=O)[C@H](CC(C)C)N(C)C(=O)CC(C(=O)N2CCOCC2)N(C)C(=O)[C@H](C2CCCC2)N(C)C(=O)C2(CCCC2)NC(=O)[C@@H]2CCCN2C(=O)[C@H](CCc2ccc(C(F)(F)F)c(Cl)c2)NC(=O)C2CCCN2C(=O)[C@@H]1Cc1ccc(C(F)(F)F)cc1` (stereo partly shown) [PP0149] ([NMeL]I[Sar][Sar][NPrPhe(4-CF3)][ξP][hPhe(3-Cl-4-CF3)]P[Ac5c][NMeGly(cPent)][ξNMeD]-Morpholide; lactam N-11) the value was 0.317 µM.
For `CCC[C@H]1C(=O)N[C@@H]([C@@H](C)CC)C(=O)N(C2CC2)CC(=O)N(C)[C@H]2C/C=C\CCN(C2=O)[C@@H](Cc2ccc(C)cc2)C(=O)N(C)CC(=O)N[C@@H](CCc2ccc(C(F)(F)F)c(OC)c2)C(=O)N2C[C@H](OCC)C[C@H]2C(=O)N(C)C2(CCC2)C(=O)N(C)[C@@H](C2CCCC2)C(=O)N(C)[C@H](C(=O)N2CCCCC2)CC(=O)N1C` [PP3096, (2S,8S,12R,14S,20S,23S,27S,30S,36S,38Z)-20-cyclopentyl-32-cyclopropyl-12-ethoxy-8-[2-[3-methoxy-4-(trifluoromethyl)phenyl]ethyl]-4,16,19,22,26,35-hexamethyl-30-[(1S)-1-methylpropyl]-23-(piperidine-1-carbonyl)-27-propyl-2-(p-tolylmethyl)spiro[1,4,7,10,16,19,2226293235-undecazatricyclo[34.5.1.0^10,14]dotetracont-38-ene-17,1′-cyclobutane]-3,6,9,15,18,21,25,28,31,34,42-undecone], in experiment [3] (setting [4]), the IC50 turned out to be 0.0358 µM.
Take `CC[C@H](C)[C@@H]1NC(=O)[C@H](CC(C)C)N(C)C(=O)C[C@@H](C(=O)N(C)C)N(CCC2CCCC2)C(=O)[C@H](C2CCCC2)N(C)C(=O)C2(CCCC2)NC(=O)[C@@H]2CCCN2C(=O)[C@H](CCc2ccc(C(F)(F)F)c(Cl)c2)NC(=O)CN(C)C(=O)[C@H](Cc2ccc(F)cc2)N2CCCCC[C@@H](C2=O)N(C)C(=O)CN(C)C1=O` [PP0975]: the IC50 in experiment [3] was determined as 1.57 µM.
On the same count and under the same terms, for `CCOC1CC2C(=O)NC3(CCC3)C(=O)N(C)C(C(C)CC)C(=O)N(C)[C@H](C(=O)N3CCOCC3)CC(=O)N(C)[C@@H](CC(C)C)C(=O)N[C@@H]([C@@H](C)CC)C(=O)N(C)CC(=O)N(C)[C@H]3CCCCN(C3=O)[C@@H](Cc3ccc(C(F)(F)F)cc3)C(=O)N(C)CC(=O)N[C@@H](CCc3cc(F)c(C(F)(F)F)c(F)c3)C(=O)N2C1` (stereo partly shown) [PP0812] the value was 0.0179 µM.
Regarding `CCCO[C@@H]1C[C@H]2C(=O)NC3(CC(C)(C)C3)C(=O)N(C)[C@@H](C3CCCC3)C(=O)N(C)[C@H](C(=O)N(C)C)CC(=O)N(C)[C@H]3CCCCc4ccc(cc4)C[C@@H](C(=O)N(C)CC(=O)N[C@@H](CCc4ccc(C(F)(F)F)c(OC)c4)C(=O)N2C1)N1CC/C=C\C[C@@H](C1=O)N(C)C(=O)CN(C1CC1)C(=O)[C@H]([C@@H](C)CC)NC3=O` [PP3082], the IC50 in experiment [3] (setting [4]) was determined as 0.0017 µM.
Regarding `CCO[C@@H]1C[C@H]2C(=O)NC3(CCC3)C(=O)N(C)[C@@H](C3CCCC3)C(=O)N(C)[C@H](C(=O)N3CCCCC3)CC(=O)N(C)[C@H]3CCC/C=C/c4ccc(cc4)C[C@@H](C(=O)N(C)CC(=O)N[C@@H](CCc4ccc(Cl)c(Cl)c4)C(=O)N2C1)N1CC/C=C\C[C@@H](C1=O)N(C)C(=O)CN(C1CC1)C(=O)[C@H]([C@@H](C)CC)NC3=O` [PP2958], the IC50 in experiment [3] (setting [5]) came to 0.0195 µM.
For the compound `CCCN1C(=O)CN(C)C(=O)CN(C)C(=O)[C@H]([C@@H](C)CC)NC(=O)[C@H](CC(C)C)N(C)C(=O)C[C@@H](C(=O)N2CCCCC2)N(C)C(=O)[C@H](C2CCCC2)N(C)C(=O)C2(CCCC2)NC(=O)[C@@H]2CCCN2C(=O)[C@H](CCc2ccc(C(F)(F)F)c(Cl)c2)NC(=O)CN(C)C(=O)[C@@H]1Cc1ccc(C(F)(F)F)cc1` [PP0171] ([NMeL]I[Sar][Sar][NPrPhe(4-CF3)][Sar][hPhe(3-Cl-4-CF3)]P[Ac5c][NMeGly(cPent)][NMeD]-Piperidide; lactam N-11), the IC50 in experiment [3] (setting [5]) turned out to be 0.0069 µM.
Turning to `CCO[C@@H]1C[C@H]2C(=O)NC3(CC(C)(C)C3)C(=O)N(C)[C@@H](C(CC)CC)C(=O)N(C)C(CC)CC(=O)N(C)[C@@H](CC)C(=O)N[C@@H]([C@@H](C)CC)C(=O)N(C)CC(=O)N(C)[C@H]3C/C=C\CCN(C3=O)[C@@H](Cc3ccc(C(F)(F)F)cc3)C(=O)N(C)CC(=O)N[C@@H](CCc3cc(F)c(C(F)(F)F)c(F)c3)C(=O)N2C1` (stereo partly shown) [PP1622], the IC50 in experiment [3] (setting [6]) amounted to 0.0281 µM.
Take `CCO[C@@H]1C[C@H]2C(=O)NC3(CC(C)(C)C3)C(=O)N(C)[C@@H](C(CC)CC)C(=O)N(C)[C@H](C(=O)N3CCCCC3)CC(=O)N(C)[C@H]3CCC/C=C/c4ccc(cc4)C[C@@H](C(=O)N(C)CC(=O)N[C@@H](CCc4ccc(Cl)c(Cl)c4)C(=O)N2C1)N1CC/C=C\C[C@@H](C1=O)N(C)C(=O)CN(C)C(=O)[C@H]([C@@H](C)CC)NC3=O` [PP2953]: in experiment [3] (setting [5]), the IC50 is 0.0334 µM.
In the case of `CCO[C@@H]1C[C@H]2C(=O)NC3(CCC3)C(=O)N(C)[C@@H](C3CCCC3)C(=O)N(C)[C@H](CC)CC(=O)N(C)[C@@H](CC3CC3)C(=O)N[C@@H]([C@@H](C)CC)C(=O)N(C)CC(=O)N(C)[C@H]3C/C=C\CCN(C3=O)C(Cc3ccc(C(F)(F)F)cc3)C(=O)N(C)CC(=O)N[C@@H](CCc3cc(F)c(C(F)(F)F)c(F)c3)C(=O)N2C1` (stereo partly shown) [PP1631], the IC50 in experiment [3] (setting [6]) was 0.0176 µM.
For the compound `CC[C@H](C)[C@@H]1NC(=O)[C@H](COC)N(C)C(=O)C[C@@H](C(=O)N(C)C)N(C)C(=O)[C@H](C2CCCC2)N(C)C(=O)C2(CC(C)(C)C2)NC(=O)[C@@H]2C[C@@H](OC3CCCC3)CN2C(=O)[C@H](CCc2cc(F)c(C(F)(F)F)c(F)c2)NC(=O)CN(C)C(=O)[C@H](Cc2ccc(C)cc2)N2CC/C=C\C[C@@H](C2=O)N(C)C(=O)CN(C2CC2)C1=O` [PP2626], the IC50 in experiment [3] stood at 0.0334 µM.
